This note sets out measurements from ChEMBL document CHEMBL4118222, “Synthesis of C-ring-modified blebbistatin derivatives and evaluation of their myosin II ATPase inhibitory potency” (Bioorg Med Chem Lett, 2018).

pIC50: −log10 of the molar value. Activity calls are given as the source filed them. No cut-off for these calls is given here.

Experiment [1] can be described thus: Inhibition of rabbit skeletal muscle myosin 2 ATPase in presence of F-actin after 1 hr. Details: species or system Oryctolagus cuniculus.
Experiment [2] is filed under the species Oryctolagus cuniculus. Nature of the experiment: Inhibition of rabbit skeletal muscle myosin 2 ATPase in presence of F-actin at 100 uM after 1 hr.

As usually defined, the pIC50 is the negative decadic logarithm of the IC50, by convention in mol/L. As to `Cc1ccc2c(c1)C(=O)[C@]1(O)CCN(c3ccccc3)C1=N2`, the pIC50 in experiment [1] is 6.02.

With `C=CCOCC1CC2(O)C(=O)c3cc(C)ccc3N=C2N1c1ccccc1` (mixture of isomers), in experiment [2], the inhibition entry was “inactive”.

With `Cc1ccc2c(c1)C(=O)[C@]1(O)C[C@H](CO)N(c3ccccc3)C1=N2` (racemic), the negative logarithm of the IC50 (pIC50) in experiment [1] was 4.12.

Regarding `Cc1ccc2c(c1)C(=O)[C@]1(O)C[C@@H](CO)N(c3ccccc3)C1=N2` (racemic), in experiment [2], the inhibition entry was “inactive”.
